Assay results as given in patent USRE29842E, “Untriakontapeptide with opiate activity” (Hoffmann-La Roche Inc., priority 1977, dated 1978).
No end group written: not given here.

Key:
[1] = test system: opiate receptor, guinea pig brain membranes; experiment: Opiate agonist activity by receptor binding assay (method of Simon et al.); conditions: for Percentage of inhibition of stereospecific binding: mean ± standard error from 4 determinations
Protocol: The opiate agonist activity of natural beta-endophine was determined by the method of Simon et al., Proc. Nat. Acad. Sci. 70, 1947 (1973) using guinea pig brain membranes.

[2] = Hughes et al. Nature 258, 557 (1975); cited from earlier work
[3] = test system: rabbit fat cells; experiment: Lipolytic activity in rabbit fat cells (procedure of Li et al.); type: cell-based; conditions: triplicate, mean ± standard error
Description: The lypolytic activity of natural beta-endorphin was compared to the activity of ovine beta-lipotropin hormone in rabbit fat cells using the procedure of Li et al., Arch. Biochem. Biophys. 169, 669 (1975).

Compound: Oc1ccc2c3c1O[C@H]1[C@@H](O)C=C[C@H]4[C@@H](C2)NCC[C@@]341 [Normophine, reference compound]
- Percentage of inhibition of stereospecific binding ([1]; dose 0.7 (10-^7 M)): 28 ± 0.8
- Percentage of inhibition of stereospecific binding ([1]; dose 7.0 (10-^7 M)): 70 ± 0.9

Compound: H-Tyr-Gly-Gly-Phe-Met-OH (H-YGGFM-OH) [pentapeptide isolated from pig brains by Hughes et al]
- Opiate agonist activity (in words) [2]: exhibits opiate agonist activity

Compound: YGGFMTSEKSQTPLVTLFKNAIIKNAHKKGQ [beta-endorphin]
- Lipolytic activity: glycerol production ([3]; dose 1.1 (unit not given)): 0.66 ± 0.28 Micromole of glycerol producti
- Lipolytic activity: glycerol production ([3]; dose 10.0 (unit not given)): 1.42 ± 0.37 Micromole of glycerol producti
- Percentage of inhibition of stereospecific binding ([1]; dose 1.0 (10-^7 M)): 60 ± 0.7
- Percentage of inhibition of stereospecific binding ([1]; dose 10.0 (10-^7 M)): 83 ± 0.2
- Potency, times that for normophine on a molar basis ([1]; molar basis): 3.42 times
